Values quoted from earlier work, collected in EP0606683B1, “Means for diagnosis of angiogenic diseases” (INSTITUT FÜR DIAGNOSTIKFORSCHUNG GmbH AN DER FREIEN …, priority 1993, dated 2003).

Key:
[1] = system: humanen atheromatösen Koronararterien; conditions: in vitro incubation; Dashwood et al., 1991
[2] = system: deendothelisierten Bereichen der Aorta; conditions: rabbit, abdominal aorta de-endothelialised by balloon catheter; Kurata et al. 1992

Question: For “^125I-Endothelin 1: ^125I-labelled Endothelin 1, ein Polypeptid aus 21 Aminosäuren; used in cited literature studies”, which “Bindung von ^125I-Endothelin 1 im Bereich der Tunica media sowie in Bereichen der Vasa vasora” value [1] is on record?
Answer: vermehrte Bindung

Question: What about the “Aufnahme von ^125I-Endothelin 1 in den deendothelisierten Bereichen der Aorta” value [2] of the same substance?
Answer: vermehrte Aufnahme
